For 15 compounds, melting point results are on record in patent publication US6699857B1, “Tetrahydroquinolinyl 6-methyldihydrothiadiazinone derivatives and use thereof” (Bayer Aktiengesellschaft, priority 1999, dated 2004).

The melting point is the temperature, or range, at which the solid turns liquid. For the compound `CC1SC(=O)NN=C1c1ccc2c(c1)CCCN2C(=O)Nc1cccc2ccccc12` (stereo not drawn) [Example 8], the melting point was 165 to 166 °C (dec.).
`CC1SC(=O)NN=C1c1ccc2c(c1)CCCN2C(=O)NCc1ccc(F)cc1` (stereo not drawn) [Example 10] came in with a melting point of 158 to 160 °C.
As to `CC1SC(=O)NN=C1c1ccc2c(c1)CCCN2C(=O)Nc1ccc(Cl)cc1` (stereo not drawn) [Example 7], the melting point is 218 to 220 °C (dec.).
As to `CCCNC(=O)N1CCCc2cc(C3=NNC(=O)SC3C)ccc21` (stereo not drawn) [Example 4], the melting point was 151 to 153 °C.
On to `CC1SC(=O)NN=C1c1ccc2c(c1)CCCN2C(=O)c1cccs1` (stereo not drawn) [Example 18], for which the melting point is 190 to 191 °C.
With `CC1SC(=O)NN=C1c1ccc2c(c1)CCCN2C(=O)C1CCCCC1` (stereo not drawn) [Example 16], the melting point was 148 to 150 °C (dec.).
Take `Cc1ccccc1NC(=O)N1CCCc2cc(C3=NNC(=O)SC3C)ccc21` (stereo not drawn) [Example 9]: the melting point was in the range of 153 to 154 °C.
Then `CC1SC(=O)NN=C1c1ccc2c(c1)CCCN2C(=O)Cc1c(Cl)cccc1Cl` (stereo not drawn) [Example 14], with 188 to 189 °C.
Regarding `CCCCNC(=O)N1CCCc2cc(C3=NNC(=O)SC3C)ccc21` (stereo not drawn) [Example 5], the melting point lay in the range of 133 to 134 °C.
In the case of `CC1SC(=O)NN=C1c1ccc2c(c1)CCCN2C(=O)c1ccco1` (stereo not drawn) [Example 11] it was 159 to 161 °C.
Then `CCNC(=O)N1CCCc2cc(C3=NNC(=O)SC3C)ccc21` (stereo not drawn) [Example 3], with 122 to 124 °C (dec.).
Regarding `CC1SC(=O)NN=C1c1ccc2c(c1)CCCN2` (stereo not drawn) [Example 2], the melting point lay in the range of 176 to 178 °C.
`CC1SC(=O)NN=C1c1ccc2c(c1)CCCN2C(=O)c1ccccc1` (stereo not drawn) [Example 13] came in with a melting point of 202 to 204 °C.
As to `CC1SC(=O)NN=C1c1ccc2c(c1)CCCN2C(=O)Nc1ccccc1` (stereo not drawn) [Example 6], the melting point is 213 to 214 °C (dec.).
Then `CC1SC(=O)NN=C1c1ccc2c(c1)CCCN2C(=O)CCc1ccccc1` (stereo not drawn) [Example 17], with 172 to 174 °C.
